The test system of experiment [1] is tongue squamous carcinoma cells (SCC4). As to the kind of experiment: WST-1 proliferation assay in SCC4 cells. As to conditions: 0.1 μg/ml and 1 μg/ml. It is filed as cell-based, human. The text has this:
(§1) In specific examples, colorimetric assays can be used to assess cellular viability and proliferation of cell cultures, such as MTT, WST-1, and resazurin assays. See, e.g., Präbst et al., Methods Mol Biol. 2017:1601:1-17.
(§2) Various cell lines were exposed to PGDHC, including human gingival squamous carcinoma cells (OECM1), tongue squamous carcinoma cells (SCC4, SCC9), and healthy human gingival epithelial control cells (OBA9) in vitro.
(In general: Tetrazolium dyes change colour on reduction, which living cells bring about.)

The test system of experiment [2] is tongue squamous carcinoma cells (SCC9). As to the kind of experiment: Cell viability/proliferation assay (WST-1) in SCC9 cells. Type of experiment: cell-based, human. As to conditions: 0.1 μg/ml and 1 μg/ml; WST-1.
Excerpt: as §1, §2
LCL521 is a dose-dependent acid ceramidase inhibitor. Comparison of the concentration-dependent effects of an acid ceramidase inhibitor, LCL521 (MedChemExpress®), and the bacterial-isolated a15:0-15:0PE phospholipid on the viability of healthy human epithelial, OBA9, and oral squamous cancer cell lines, OECM1 and SCC9, in vitro was evaluated. […] (FIG. 15A). […] (FIG. 15B).

The subject of a further experiment is NFkB. As to the kind of experiment: NFkB mRNA expression in OECM1 cells. Type of experiment: cell-based, human. Here is the method:
NF-kB, MMP-2, ADAM-17, and IL6 are implicated in the degradation of the expression of genes involved in the cell basement membrane and extracellular matrix of oral squamous cell carcinoma. Accordingly, the expression of NFkB, MMP2, ADAM17, and IL6 in OECM1 cells following exposure to 0.1 μg/ml PGDHC and 1 μg/ml PGDHC was determined.
Sphingosine-1-phosphate (S1P) sphingolipid plays an essential role in the survival, migration, and degradation of the basement membrane and extracellular matrix of oral squamous cell carcinoma (Yura et al., Cancers (Basel). 2020 August; 12(8): 2062). To determine whether PGDHC can inhibit such properties, the combined effects of PGDHC and S1P on OECM1 gene expression was tested in vitro.

A further experiment has as its system OECM1 cells. As to the kind of experiment: Transwell (insert) transmigration assay, OECM1. Type of experiment: cell-based, human. As to conditions: 1 μg/ml, compared to sham control. Here is the method: A scratch wound healing assay was performed according to known methods to assess the effects of PGDHC on the migration of human oral squamous cell carcinoma cells. […] The scratch wound healing assay was validated with a transwell migration assay.

For the next experiment, the system named is N-cadherin. As to the kind of experiment: Western blot of N-cadherin in OECM1 cells. It is filed as cell-based, human. As to conditions: 24 h of treatment. The method, then: To determine the effect of PGDHC on cell markers involved in metastasis, the protein levels of p-STAT3, EMT markers, E-cadherin, N-cadherin, and Vimentin in OECM1 cells following in vitro exposure to PGDHC were determined by Western blot assay.
Background: A western blot detects proteins with antibodies after separation by electrophoresis.

Experiment [3] has as its system healthy epithelial OBA9 cells. As to the kind of experiment: Untargeted metabolomic pathway analysis (LC/MS) in healthy OBA9 cells. Conditions: 1 μg/ml for 6 h. It is filed as cell-based, human. An excerpt: Based on this analysis, at least 5 different cell survival metabolomic pathways, underlined in red were diminished in OSCC (OECM1 and SCC9), but not in healthy epithelial OBA9 cells in response to PGDHC. The 5 pathways were folate metabolism, arginine and proline metabolism, glycine and serine metabolism, de novo triacylglycerol biosynthesis, and mitrochondrial electron transport chain.
The Warburg effect is a metabolic phenomenon observed in many cancer cells, where the cells preferentially use glycolysis metabolism to produce energy instead of oxidative phosphorylation. The Warburg effect is a hallmark of rapid cancer cell growth. Therefore, we evaluated whether PGDHC altered Warburg effect in OSCM1 and SCC9 oral squamous cell carcinoma cells (FIG. 17A), but not healthy epithelial OBA9 cells (FIG. 17B), in vitro. Cells were stimulated with PGDHC (1 μg/ml) for 6 h and the untargeted metabolomic analysis was performed using LC/MS mass-spectrometry. Polar and lipid metabolites were analyzed with HILIC/MS and LC/MS, respectively. […]
Based upon the impact of PGDHC on the Warburg effect in OSCC cells, we further analyzed the levels of cancer-survival metabolites adenosine triphosphate (ATP) and glucose in the OECM1, SCC9, and OBA9 cells described in Example 11. […]

In experiment [4] the test system is healthy oral epithelial cells. As to the kind of experiment: ASAH1 expression and dihydroceramide accumulation in healthy oral epithelial cells. Type of experiment: cell-based. As to conditions: preliminary findings. The text has this: Applicant performed in vitro studies to determine the effect of PEDHC and PGDHC on the proliferation of oral cancer cells via downregulation of acid ceramidase, thereby contributing to the accumulation of intracellular ceramides. […] Furthermore, PGDHC diminished metabolites in at least five different cell survival metabolomic pathways in OSCC cells but not in healthy cells. The metabolomic pathways included folate metabolism, arginine and proline metabolism, triacylglycerol biosynthesis de novo, mitochondrial election transport chain, and glycine and serine metabolism. […] In contrast to current approaches for undermining the viability of oral squamous cell carcinoma and treating OSCC, the present disclosure relates in some aspects to methods and compositions for selectively interfering with any of the growth, viability, proliferation, migration, and metastasis of oral squamous cell carcinoma.

Experimental findings from US20250312365A1, “METHODS FOR INHIBITION OF SQUAMOUS CARCINOMA CELLS USING CERAMIDE MODULATORS” (The Trustees of Indiana University, priority 2024, published 2025) are described below.

phosphoglycerol dihydroceramide [PGDHC]: the “proliferation of SCC4 cells” value in experiment [1] is “did not have an observable effect”. For the same substance, the “proliferation of SCC9 cells” value in experiment [2] is on record as “did not have an observable effect”. In the experiment with NFkB (1 μg/ml), the “expression of NFkB mRNA in OECM1 cells” value is reported as “significantly inhibited”. In the experiment on NFkB (in combination with S1P), the “expression of NFkB mRNA in OECM1 cells exposed to S1P” value is “significantly inhibited”. For the same substance, the “number of transmigrated OECM1 cells” value in the experiment on OECM1 cells is on record as “significantly reduced”. Besides, the “protein level of N-cadherin in OECM1 cells” value in the experiment on N-cadherin is recorded as “little to no detectable effect”. In addition, in experiment [3], the “Warburg effect in healthy OBA9 cells” value is “no effect”. In experiment [4], the “inhibition of ASAH1 expression and accumulation of dihydroceramide in healthy oral epithelial cells” value is “not observed”.
